Measured values reported in US11254686B1 (Corvus Pharmaceuticals, Inc., priority 2017, dated 2022).

Tests used:
[1] = Liver microsome (LM) intrinsic clearance, rat; assay type: in vitro ADME
CYP3A4 = CYP3A4 (Homo sapiens (Human), UniProt P08684); test: CYP450 inhibition at 10 μM, CYP3A4; assay type: in vitro ADME; conditions: human, 10 μM, read-out: CYP 450 % INH @ 10 μM
adenosine A2B receptor = adenosine A2B receptor (Homo sapiens (Human), UniProt P29275); test: Adenosine receptor activity assay (Table 1), A2B activity; assay type: biochemical; conditions: for Ratio: A2A activity to A2B activity (A2A/A2B); for IC50: read-out: Ave A2B cAMP IC50
[2] = Hepatocyte (Hep) intrinsic clearance, human; assay type: in vitro ADME; conditions: hepatocytes
[3] = Hepatocyte (Hep) intrinsic clearance, rat; assay type: in vitro ADME; conditions: hepatocytes
[4] = Hepatocyte (Hep) intrinsic clearance, dog; assay type: in vitro ADME; conditions: hepatocytes
[5] = Hepatocyte (Hep) intrinsic clearance, monkey; assay type: in vitro ADME; conditions: hepatocytes
adenosine A2A receptor = adenosine A2A receptor (Homo sapiens (Human), UniProt P29274); test: Adenosine receptor activity assay (Table 1), A2A activity; assay type: biochemical; conditions: read-out: Ave A2A cAMP IC50
[6] = Liver microsome (LM) intrinsic clearance, human; assay type: in vitro ADME
adenosine A3 receptor [7] = target: T1, adenosine A3 receptor (Homo sapiens (Human), UniProt P0DMS8); test: A3 cAMP IC50 assay (Table 1); assay type: biochemical
adenosine A1 receptor [8] = target: T2, adenosine A1 receptor (Homo sapiens (Human), UniProt P30542); test: A1 cAMP IC50 assay (Table 1); assay type: biochemical
CYP2D6 = CYP2D6 (Homo sapiens (Human), UniProt P10635); test: CYP450 inhibition at 10 μM, CYP2D6; assay type: in vitro ADME; conditions: read-out: CYP 450 % INH @ 10 μM
[9] = Hepatocyte intrinsic clearance, human; assay type: in vitro ADME
adenosine A1 receptor [10] = target: T2, adenosine A1 receptor; test: Adenosine receptor activity assay (Table 1), A1 cAMP; assay type: cell-based
[11] = Hepatocyte intrinsic clearance, rat; assay type: in vitro ADME
adenosine A3 receptor [12] = target: T1, adenosine A3 receptor; test: Adenosine receptor activity assay (Table 1), A3 cAMP; assay type: cell-based
CYP 450 = test: CYP450 inhibition at 10 μM; assay type: in vitro ADME

Chain of adenosine A2B receptor (P29275 whole entry): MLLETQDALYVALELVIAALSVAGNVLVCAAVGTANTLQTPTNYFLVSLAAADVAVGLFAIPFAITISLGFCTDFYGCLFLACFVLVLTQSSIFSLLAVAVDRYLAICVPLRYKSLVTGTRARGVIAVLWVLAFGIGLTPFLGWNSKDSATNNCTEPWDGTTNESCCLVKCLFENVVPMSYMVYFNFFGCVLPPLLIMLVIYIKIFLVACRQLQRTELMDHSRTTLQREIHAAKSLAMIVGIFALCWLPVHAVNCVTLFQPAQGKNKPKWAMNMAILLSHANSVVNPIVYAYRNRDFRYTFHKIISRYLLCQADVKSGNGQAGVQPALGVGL
Chain of adenosine A2A receptor (P29274 whole entry): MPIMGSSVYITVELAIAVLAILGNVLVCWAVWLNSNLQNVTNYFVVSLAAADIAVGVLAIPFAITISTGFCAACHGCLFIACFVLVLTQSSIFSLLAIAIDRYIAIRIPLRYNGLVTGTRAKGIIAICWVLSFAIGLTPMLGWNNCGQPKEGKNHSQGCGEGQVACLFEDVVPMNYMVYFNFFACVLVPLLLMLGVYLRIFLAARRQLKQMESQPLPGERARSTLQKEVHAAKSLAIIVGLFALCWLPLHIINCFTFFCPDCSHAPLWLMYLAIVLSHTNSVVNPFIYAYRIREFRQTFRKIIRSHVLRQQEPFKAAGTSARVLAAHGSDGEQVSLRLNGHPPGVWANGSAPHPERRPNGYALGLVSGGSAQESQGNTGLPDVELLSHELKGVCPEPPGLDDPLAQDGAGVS
T2 sequence (P30542 whole entry): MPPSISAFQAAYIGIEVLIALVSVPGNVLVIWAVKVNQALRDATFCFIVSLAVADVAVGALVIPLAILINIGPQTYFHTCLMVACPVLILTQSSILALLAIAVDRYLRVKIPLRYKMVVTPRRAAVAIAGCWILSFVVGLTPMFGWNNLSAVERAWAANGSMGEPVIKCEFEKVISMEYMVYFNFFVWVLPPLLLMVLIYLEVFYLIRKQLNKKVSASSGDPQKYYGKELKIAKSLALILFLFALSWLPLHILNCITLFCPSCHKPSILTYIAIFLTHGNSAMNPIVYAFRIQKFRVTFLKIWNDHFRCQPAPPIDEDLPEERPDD
T1 sequence (P0DMS8 whole entry): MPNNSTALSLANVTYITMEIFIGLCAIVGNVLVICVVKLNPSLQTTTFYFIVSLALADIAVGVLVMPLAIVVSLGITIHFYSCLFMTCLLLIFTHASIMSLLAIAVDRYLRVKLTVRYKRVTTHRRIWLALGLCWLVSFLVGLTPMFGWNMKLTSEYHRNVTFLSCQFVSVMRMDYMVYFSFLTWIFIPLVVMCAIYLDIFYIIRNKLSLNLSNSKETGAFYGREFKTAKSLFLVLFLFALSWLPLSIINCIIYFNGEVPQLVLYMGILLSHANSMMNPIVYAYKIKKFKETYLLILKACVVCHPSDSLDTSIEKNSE
Chain of CYP2D6 (P10635 whole entry): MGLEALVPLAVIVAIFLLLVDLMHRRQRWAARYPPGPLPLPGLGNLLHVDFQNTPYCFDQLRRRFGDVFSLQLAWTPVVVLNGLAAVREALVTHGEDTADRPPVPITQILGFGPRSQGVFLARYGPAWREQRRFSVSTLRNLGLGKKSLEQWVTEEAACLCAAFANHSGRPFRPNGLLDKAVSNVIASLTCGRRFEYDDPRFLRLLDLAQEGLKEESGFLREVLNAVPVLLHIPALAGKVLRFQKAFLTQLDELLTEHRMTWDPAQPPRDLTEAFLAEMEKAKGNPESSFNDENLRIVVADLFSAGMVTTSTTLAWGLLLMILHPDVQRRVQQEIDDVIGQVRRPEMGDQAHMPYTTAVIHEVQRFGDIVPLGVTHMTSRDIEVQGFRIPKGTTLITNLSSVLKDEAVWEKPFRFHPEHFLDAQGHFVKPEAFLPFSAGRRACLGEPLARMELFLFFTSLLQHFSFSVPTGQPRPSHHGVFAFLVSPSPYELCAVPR
Chain of CYP3A4 (P08684 whole entry): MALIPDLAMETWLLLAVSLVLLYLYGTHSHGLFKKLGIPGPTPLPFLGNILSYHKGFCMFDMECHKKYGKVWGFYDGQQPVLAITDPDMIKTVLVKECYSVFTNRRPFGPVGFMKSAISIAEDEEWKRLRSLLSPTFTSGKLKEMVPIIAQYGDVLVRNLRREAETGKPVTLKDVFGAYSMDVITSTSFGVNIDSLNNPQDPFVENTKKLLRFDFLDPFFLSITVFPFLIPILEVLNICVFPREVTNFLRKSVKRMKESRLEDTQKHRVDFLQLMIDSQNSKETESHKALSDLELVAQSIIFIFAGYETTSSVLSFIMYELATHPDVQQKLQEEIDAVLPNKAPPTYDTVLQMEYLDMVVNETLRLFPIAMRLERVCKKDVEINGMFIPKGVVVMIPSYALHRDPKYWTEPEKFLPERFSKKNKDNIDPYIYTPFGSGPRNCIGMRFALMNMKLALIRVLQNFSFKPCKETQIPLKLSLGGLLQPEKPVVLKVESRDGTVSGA

| Molecule | LM CLint [1] | inhibition at 10 µM (CYP3A4) | Ratio (adenosine A2B receptor) | IC50 (adenosine A2B receptor) | hepatocyte CLint [2] | hepatocyte CLint [3] | hepatocyte CLint [4] | hepatocyte CLint [5] | IC50 (adenosine A2A receptor) | LM CLint [6] | IC50 (adenosine A3 receptor [7]) | IC50 (adenosine A1 receptor [8]) | inhibition at 10 µM (CYP2D6) | Hep CLint [9] | IC50 (adenosine A1 receptor [10]) | Hep CLint [11] | IC50 (adenosine A3 receptor [12]) | CYP 450 % INH @ 10 μM (CYP 450) |
| --- | --- | --- | --- | --- | --- | --- | --- | --- | --- | --- | --- | --- | --- | --- | --- | --- | --- | --- |
| C[C@H](Nc1nc(C(=O)N2CC[C@H](O)C2)c2sccc2n1)c1ccccn1 [Example Z58, ((S)-3-Hydroxypyrrolidin-1-yl)(2-(((S)-1-(pyridin-2-yl)ethyl)amino)thieno[3,2-d]pyrimidin-4-yl)methanone] | 0.0 μL/min/mg/protein | 0% | 15.14 | 50 to 100 nM | 2.21 µL/min/1e6 cells | 4.46 µL/min/1e6 cells | 1.73 µL/min/1e6 cells | 0.19 µL/min/1e6 cells | > 500 nM | 5.60 μL/min/mg/protein | > 500 nM | > 500 nM | 10% | – | – | – | – | – |
| (6-Amino-2-(((S)-1-(5-fluoropyridin-3-yl)ethyl)amino)thieno[3,2-d]pyrimidin-4-yl)((S)-3-hydroxypyrrolidin-1-yl)methanone [Example Z212] | – | – | 149.76 | < 10 nM | – | – | – | – | > 500 nM | – | – | – | – | 1.64 mL/min/10^6 cells | > 500 nM | 5.95 mL/min/10^6 cells | > 500 nM | 19.6% |
